From patent publication US20230285405A1, “Pharmaceuticals for Treating or Preventing Nidoviruses and Picornaviruses” (priority 2020, published 2023)
Structures can show the parent of a compound that is named as a salt. Where two headings read alike, the source gives them in different places.

How the values were obtained:
OC43 = assay: Drug screening: OC43 nucleoprotein staining in infected A549-mRuby cells; type: cell-based, human beta coronavirus OC43
Description: A549-mRuby cells were seeded (3,000 cells per well) in nine 384-well plates using Multidrop combi. Cells were seeded in a final volume of 30 μl with DMEM+10% BCS. The following day, 20 μl of OC43 were added (MOI 0.3) and incubated at 33° C., 5% CO2 for 1 hour. 50 nl from the Selleck FDA-approved drug library (cat #L1300, Selleck) were added (1:1,000 dilution). Two columns (32 wells) were left uninfected and two columns were treated with DMSO and virus (no drug control). Cells were imaged using the IncuCyte S3 to measure cell numbers at day 0. Cells were incubated for 4 days at 33° C., 5% CO2 and were stained for OC43 nucleoprotein. All the following steps were performed at room temperature. Cells were fixed in 50 μl 4% PFA/PBS for 15 min, blocked with 50 μl 10% BSA+0.5% Triton X-100 in PBS for 30 minutes, stained with 50 μl anti-OC43 (cat #MAB9013, Milipore) diluted 1:2,000 in 2% BSA+0.1% Triton X-100 in PBS for 1 hour, washed with 50 μl PBS three times, stained with anti-mouse-AlexaFluor488 diluted 1:1,000 in 2% BSA+0.1% Triton X-100 in PBS for 1 hour, washed with 50 μl PBS three times and imaged on the IncuCyte S3 (day 4). The screen was performed twice.
(§1) The following parameters were extracted from the images: number of cells at day 0, number of cells at day 4 and total OC43 staining intensity at day 4. For analysis, OC43 staining intensity was normalized to the number of cells in the well and further normalized to the mean of the no drug controls, which was set to 100. […] For each plate, a drug was considered as a putative hit if it reduced OC43 staining by over 3 standard deviations from the mean of the no drug controls. Drugs were considered hits if they were not toxic and reduced OC43 staining by over 3 standard deviations in both repeats.
(§2) A library of 1,900 clinically used drugs was screened, the drugs either approved for human use or having extensive safety data in humans (Phase 2 or 3 clinical trials), for their ability to inhibit OC43 infection of the human lung epithelial cell line A549 (expressing an H2B-mRuby nuclear reporter). One day after plating, cells were infected at an MOI of 0.3, incubated at 33° C. for 1 hour and drugs were added to a final concentration of 10 μM. Cells were then incubated at 33° C. for 4 days, fixed and stained for the presence of the viral nucleoprotein. The cells were imaged at day 0 (following drug addition) and day 4 (after staining) to determine the drugs effect on cell growth and OC43 infection.

A549-mRuby cells = assay: Drug screening: effect on cell growth (cell number day 4 / day 0); conditions: 10 μM drug; for Growth_1: number of cells at day 4 divided by number of cells at day 0 / toxic_1: repeat #1; for Growth_2: number of cells at day 4 divided by number of cells at day 0 / toxic_2: repeat #2
Description: A549-mRuby cells were seeded (3,000 cells per well) in nine 384-well plates using Multidrop combi. Cells were seeded in a final volume of 30 μl with DMEM+10% BCS. The following day, 20 μl of OC43 were added (MOI 0.3) and incubated at 33° C., 5% CO2 for 1 hour. 50 nl from the Selleck FDA-approved drug library (cat #L1300, Selleck) were added (1:1,000 dilution). Two columns (32 wells) were left uninfected and two columns were treated with DMSO and virus (no drug control). Cells were imaged using the IncuCyte S3 to measure cell numbers at day 0. Cells were incubated for 4 days at 33° C., 5% CO2 and were stained for OC43 nucleoprotein. All the following steps were performed at room temperature. […] The screen was performed twice.
as §1, §2

[1] = Betacoronavirus 1, OC43, 96 h, 10 μM drug, MOI 0.3, 4 days, OC43 staining normalized to no-drug controls, mean of the two screen repeats, read-out: OC43_mean
[2] = Betacoronavirus 1, OC43, 96 h, 10 μM drug, MOI 0.3, 4 days, normalized to no-drug controls in the same plate, repeat #1, read-out: OC43_1: % staining of OC43 in screen repeat #1
[3] = Betacoronavirus 1, OC43, 96 h, 10 μM drug, MOI 0.3, 4 days, normalized to no-drug controls in the same plate, repeat #2, read-out: OC43_2: % staining of OC43 in screen repeat #2

Structure (SMILES) | hit_1 (OC43; 10 μM drug, repeat #1) | hit_2 (OC43; 10 μM drug, repeat #2) | activity at 10 µM (OC43; [1]) [%] | activity at 10 µM (OC43; [2]) [%] | activity at 10 µM (OC43; [3]) [%] | Growth_1: number of cells at day 4 divided by number of cells at day 0 (A549-mRuby cells) | toxic_1 (A549-mRuby cells) | Growth_2: number of cells at day 4 divided by number of cells at day 0 (A549-mRuby cells) | toxic_2 (A549-mRuby cells) | activity at 10 µM (OC43; Betacoronavirus 1, 96 h, 10 μM drug, MOI 0.3, 4 days, OC43 staining normalized to no-drug controls, mean of the two screen repeats, read-out: OC43_mean) [%] | OC43_mean (OC43; 10 μM drug, MOI 0.3, 4 days, OC43 staining normalized to no-drug controls, mean of the two screen repeats) [%] | OC43_1: % staining of OC43 in screen repeat #1 (OC43; 10 μM drug, MOI 0.3, 4 days, normalized to no-drug controls in the same plate, repeat #1) [%] | OC43_2: % staining of OC43 in screen repeat #2 (OC43; 10 μM drug, MOI 0.3, 4 days, normalized to no-drug controls in the same plate, repeat #2) [%] | activity at 10 µM (OC43; Betacoronavirus 1, OC43, 96 h, read-out: OC43_mean) [%]
CC(CN1c2ccccc2Sc2ccccc21)N(C)C (stereo not drawn) [Promethazine HCl] | 1 | 1 | 24.4 | 19.4 | 29.5 | 3.0 | 0 | 2.4 | 0 | – | – | – | – | –
CN1CCC(COc2cnc(-c3cccc(Cn4nc(-c5cccc(C#N)c5)ccc4=O)c3)nc2)CC1 [Tepotinib (EMD 1214063), Tepotinib] | 1 | 1 | 28.9 | 15.3 | 42.6 | 5.3 | 0 | 5.2 | 0 | – | – | – | – | –
CCOC(=O)N[C@@H]1CC[C@@H]2[C@@H](C1)C[C@H]1C(=O)O[C@H](C)[C@H]1[C@H]2/C=C/c1ccc(-c2cccc(F)c2)cn1 [Vorapaxar] | 1 | 1 | 50.9 | 53.5 | 48.3 | 4.4 | 0 | 4.1 | 0 | – | – | – | – | –
CCCCCCCC(=O)N[C@H](CN1CCCC1)[C@H](O)c1ccc2c(c1)OCCO2 [Eliglustat] | 1 | 1 | – | 22.7 | 20.4 | 5.5 | 0 | 4.8 | 0 | 21.5 | – | – | – | –
COc1cccc(CCc2ccccc2OCC(CN(C)C)OC(=O)CCC(=O)O)c1 (stereo not drawn) [Sarpogrelate hydrochloride] | 1 | 1 | 25.9 | 26.8 | 24.9 | 5.0 | 0 | 5.4 | 0 | – | – | – | – | –
CCC(=O)O[C@]1(C(=O)SCF)[C@H](C)C[C@H]2[C@@H]3C[C@H](F)C4=CC(=O)C=C[C@]4(C)[C@@]3(F)[C@@H](O)C[C@@]21C [Fluticasone propionate] | 1 | 1 | – | – | – | 3.8 | 0 | 4.2 | 0 | – | 48.8 | 48.4 | 49.2 | –
CC(C)NCC(O)COc1cccc2ccccc12 (stereo not drawn) [Propranolol HCl] | 1 | 1 | – | 21.6 | 27.7 | 5.6 | 0 | 4.1 | 0 | – | – | – | – | 24.7
CC(N)C12CC3CC(CC(C3)C1)C2 (stereo not drawn) [Rimantadine Hydrochloride] | 1 | 1 | 52.6 | 50.6 | 54.6 | 4.4 | 0 | 5.1 | 0 | – | – | – | – | –
CN(C)N(C)C(=O)[C@@]1(Cc2ccccc2)CCCN(C(=O)[C@@H](Cc2c[nH]c3ccccc23)NC(=O)C(C)(C)N)C1 [Anamorelin] | 1 | 1 | 38.8 | 32 | 45.6 | 5.2 | 0 | 5.5 | 0 | – | – | – | – | –
CO[C@H]1/C=C/O[C@@]2(C)Oc3c(C)c(O)c4c(c3C2=O)C2=NC3(CCN(CC(C)C)CC3)NC2=C(NC(=O)/C(C)=C\C=C\[C@H](C)[C@H](O)[C@@H](C)[C@@H](O)[C@@H](C)[C@H](OC(C)=O)[C@@H]1C)C4=O [Rifabutin] | 1 | 1 | 41.1 | 25.8 | 56.4 | 5.5 | 0 | 5.3 | 0 | – | – | – | – | –
CN1CCC(=C2c3ccccc3C=Cc3ccccc32)CC1 [Cyproheptadine HCl] | 1 | 1 | 27 | 22.8 | 31.2 | 3.8 | 0 | 3.0 | 0 | – | – | – | – | –
CN(C)CCC=C1c2ccccc2CCc2ccccc21 [Amitriptyline HCl] | 1 | 1 | 22.8 | 11.2 | 34.3 | 3.7 | 0 | 4.1 | 0 | – | – | – | – | –
NC(=O)C(c1ccccc1)(c1ccccc1)[C@@H]1CCN(CCc2ccc3c(c2)CCO3)C1 [Darifenacin HBr] | 1 | 1 | 24.7 | 14.6 | 34.8 | 5.2 | 0 | 3.4 | 0 | – | – | – | – | –
CC[C@H]1OC(=O)[C@H](C)[C@@H](O[C@H]2C[C@@](C)(OC)[C@@H](O)[C@H](C)O2)[C@H](C)[C@@H](O[C@@H]2O[C@H](C)C[C@H](N(C)C)[C@H]2O)[C@](C)(O)C[C@@H](C)/C(=N\OCOCCOC)[C@H](C)[C@@H](O)[C@]1(C)O [Roxithromycin] | 1 | 1 | 41.4 | 55.8 | 27.1 | 5.2 | 0 | 5.6 | 0 | – | – | – | – | –
CN(C)CCCN1c2ccccc2Sc2ccccc21 [Promazine hydrochloride] | 1 | 1 | 23 | 23.4 | 22.6 | 4.7 | 0 | 4.7 | 0 | – | – | – | – | –
CC1(C)O[C@@H]2C[C@H]3[C@@H]4C[C@H](F)C5=CC(=O)C=C[C@]5(C)[C@@]4(F)[C@@H](O)C[C@]3(C)[C@]2(C(=O)CO)O1 [Fluocinolone Acetonide] | 1 | 1 | 45.5 | 38.9 | 52.2 | 3.5 | 0 | 4.0 | 0 | – | – | – | – | –
